Source: patent US20090180969A1, “PHARMACEUTICAL FORMULATION COMPRISING AN ANTICHOLINERGIC DRUG” (Chiesi Farmaceutici S.p.A., priority 2008, published 2009)

Columns and labels:
[1] = Estimation of lung levels after nebulisation; assay type: in vivo; conditions: guinea pig, inhaled, nebulisation with submaximal bronchodilator activity, 2 hours after treatment, read-out: retained dose in the target organ (lung)
[2] = system: acetylcholine (Ach)-induced increase in Penh (airway reactivity); test: Bronchodilation activity: Ach-induced increase in Penh, barometric plethysmography; assay type: in vivo, guinea pig; conditions: for bronchoprotective effect: 24 hours
Method: Airway reactivity is measured using barometric plethysmography (Buxco, USA). Male guinea pigs (500-600 g) are individually placed in plexiglass chambers. After an acclimatisation period, animals are exposed to nebulised saline for 1 minute to obtain airway baseline reading. This is followed by a 1 minute challenge with nebulised acetylcholine (Ach)-2.5 mg/mL. After 60 minutes, 5 minute nebulisation of vehicle or the compound 1′ in the range 2.5-250 μM are applied and Ach challenge is then repeated after 2, 5, 24, 48 and 72 hours (h). Recording of pressure fluctuations in the chambers are taken for 5 minutes after each nebulisation and analysed to calculate Enhanced Pause (Penh). Airway reactivity is expressed as percentage increase in Penh compared with Penh values from the nebulisation of vehicle. […] After inhalation of […] of compound 1′, effect persists unchanged up to 48 hours (83.0±16.1%), while at 72 hours a residual activity of 34.8±20.9% is present.

O=C(C[N+]12CCC(CC1)[C@@H](OC(=O)N(Cc1cc(F)c(F)c(F)c1)c1cccc(F)c1)C2)c1cccs1.[Cl-] [compound 1′, (3R)-3-[[[(3-fluorophenyl)[(3,4,5-trifluorophenyl)methyl]amino]carbonyl]oxy]-1-[2-oxo-2-(2-thienyl)ethyl]-1-azoniabicyclo[2.2.2]octane chloride]
concentration at 2 h [1]: ~50 ng/g | bronchoprotective effect ([2]; 25 μM inhalation): 63.7±15.1% | bronchoprotective effect ([2]; 50 μM inhalation): 87.1±8.7% | inhibition ([2]; 50 μM inhalation, 48 h): 49.2±23.2% | maximal effect, inhibition of Ach-induced increase in Penh ([2]; 50 μM nebulised, 2 hours after end of nebulisation): 99.6±0.4 | effect (inhibition of Ach-induced increase in Penh) ([2]; 250 μM inhalation, 48 hours): 83.0±16.1% | residual activity ([2]; 250 μM inhalation, 72 hours): 34.8±20.9% | duration of effect ([2]; inhalation of lower concentrations (below 25 μM)): ≤ 5 h
